Patent US20230357261A1, “ARYL HYDROCARBON RECEPTOR LIGANDS AND THEIR ANALOGUES FOR THE PREVENTION AND TREATMENT OF INFLAMMATORY DISORDERS” (The Johns Hopkins University, priority 2020, published 2023)
Entries after “also recorded” stand apart in the source; their conditions may differ.

What was measured:
AHR [1] = experiment: AHR activation in IEC-6 enterocytes (Cyp1a1 expression); assay type: cell-based, rat; conditions: exposed to amniotic fluid, breast milk and serum harvested from pregnant mice administered I3C vs control diet
Experimental: The intestinal epithelial cells line IEC-6 (ATCC CRL-1592) was stably transduced with lentiviral particles containing Cignal Lenti XRE Reporter (luc) (Qiagen). Cells were treated serially with individual chemicals contained within the Johns Hopkins Drug Library (JHDL), which contains a series of FDA-approved drugs, Chong et al., 2006, (kindly provided by Dr. Jun O. Liu, Johns Hopkins University) at 10 μM for 24 hours, and the luciferase activity was quantified using the SpectraMax M3 (Molecular Devices).
(§1) Total RNA was isolated using the RNeasy mini kit (Qiagen) and complementary DNA was synthesized from 0.5 μg RNA using QuantiTect Reverse Transcription kit (Qiagen) following the manufacturer's protocols. The mRNA quantification was performed on the Bio-Rad CFX96 Real-Time System (Bio-Rad) using iTaq™ universal SYBR® Green supermix (Bio-Rad) and the primers listed in Table 1. The relative mRNA expression levels were normalized against the expression of the housekeeping gene ribosomal protein lateral stalk subunit P0 (Rplp0). For microRNA isolation, freshly harvested, snap-frozen ileal tissue was subjected to total RNA isolation using the RNeasy plus universal mini kit (Qiagen) and miRNA was quantified using miScript PCR starter kit (Qiagen) following the manufacturer's protocols. The relative miRNA expression levels were normalized against the expression of housekeeping miRNA miR-191.

TLR4 [2] = experiment: TLR4 signaling and expression in human ileal explant culture (LPS); assay type: cell-based; conditions: 200 μM I3C or 20 μM A18; LPS 50 μg/mL for 6 hours
Source text: (§2) De-identified human ileal samples were collected via waiver of consent from the Office of Human Subjects Research Review Boards at Johns Hopkins University (IRB00094036), during surgery for NEC or at the time of stoma closure. For RNA isolation and qRT-PCR analysis, fresh samples were snapfrozen in liquid nitrogen immediately. For human explant culture, fresh ileum samples from NEC patients or patient undergoing stoma re-anastomosis were washed with sterile phosphate-buffered saline containing gentamycin (5 μg/mL), minced into 2- to 4-mm diameter pieces, and then cultured in Dulbecco's modified Eagle growth medium supplemented with 10% fetal bovine serum, 4 μg/mL human recombinant insulin and 100 μg/mL Primocin. Human ilea explant cultures were then pre-treated with 200 μM I3C or 20 μM A18 for 15 minutes, and then with 50 μg/mL LPS for 6 hours, then processed for total RNA isolation followed by qRT-PCR.
as §1

AHR [3] = experiment: AHR activation in mouse intestine in vivo (Cyp1a1 expression by qRT-PCR); conditions: for expression of the AHR response gene Cyp1a1 in the small intestine: maternal diet with I3C throughout pregnancy, 25 mg/kg body weight/day
Experimental: Hits were validated for activation of AHR signaling by oral gavage into neonatal C57/B16 mice (p11), and measuring the expression of the AHR activation reporter Cyp1a1 by qRT-PCR in the intestinal mucosa 24 hours later. The lead compound from these studies is herein labelled “A18”. Additionally, the mice were subjected to hypoxia (5% 02-95% N2) for 10 min in a hypoxia chamber (Billups-Rothenberg) twice daily for 4 days. […] To test the protective effect of breast milk on AHR signaling a NEC, human breast milk (Innovative Research) was supplemented to the formula at the final concentration of 5%. Endotoxemia was induced in neonatal mouse pups (p11) by administering 5 mg/kg lipopolysaccharides (LPS) via intraperitoneal injection, and ileal samples were harvested 6 hours after LPS treatments. […] I3C and A18 were administered to the pregnant mother daily until the offspring were studied further for experimental NEC or endotoxemia as above. […] The mRNA quantification was performed on the Bio-Rad CFX96 Real-Time System (Bio-Rad) using iTaqTM universal SYBR® Green supermix (Bio-Rad) and the primers listed in Table 1. The relative mRNA expression levels were normalized against the expression of the housekeeping gene ribosomal protein lateral stalk subunit P0 (Rplp0). For microRNA isolation, freshly harvested, snap-frozen ileal tissue was subjected to total RNA isolation using the RNeasy plus universal mini kit (Qiagen) and miRNA was quantified using miScript PCR starter kit (Qiagen) following the manufacturer's protocols. The relative miRNA expression levels were normalized against the expression of housekeeping miRNA miR-191.

mouse NEC model = experiment: Experimental NEC in newborn mice (Example 1); assay type: in vivo
TLR4 [4] = experiment: TLR4 signaling in mouse ileal enteroids (LPS-induced Tnf-a qRT-PCR); assay type: cell-based; conditions: I3C or breast milk pre-treatment, LPS 50 μg/mL
Experimental: Primary intestinal crypt cultures (enteroids) were generated from the ileum of neonatal (p7-p11) wild type and Ahr′ mice at as described, Neal et al., 2012, and maintained in Matrigel (Corning). The enteroids were digested and passed using TrypLE Express (Gibco) weekly, and used between passage 3 and 10 for all experiments. The enteroids were pre-treated with I3C ([…], 12 h), A18 (20 μM, 12 h) or human breast milk (100 μL/mL, Innovative Research, prepared by 5-minute-cenrifugation at 12,000 g and then filtration of supernatant through a 0.22-μm filter) and then treated with LPS (50 μg/mL) for 4 hours for further analysis.
Primary intestinal crypt cultures (enteroids) were generated from the ileum of neonatal (p7-p11) mice at as described, Neal et al., 2012, and maintained in Matrigel (Corning). The enteroids were digested and passed using TrypLE Express (Gibco) weekly, and used between passage 3 and 10 for all experiments. The enteroids were pre-treated with tested compound (40 uM, overnight) and then treated with LPS (50 μg/mL) for 6 hours for further analysis.
Total RNA was isolated using the RNeasy mini kit (Qiagen) and complementary DNA was synthesized from 0.5 μg RNA using QuantiTect Reverse Transcription kit (Qiagen) following the manufacturer's protocols. The mRNA quantification was performed on the Bio-Rad CFX96 Real-Time System (Bio-Rad) using iTaq™ universal SYBR® Green supermix (Bio-Rad) and the primers listed in Table 2. The relative mRNA expression levels were normalized against the expression of the housekeeping gene ribosomal protein lateral stalk subunit P0 (Rplp0).

[5] = system: miR-146b, miR-223 and let-7i; experiment: Tlr4 regulatory microRNAs in mouse ileum; assay type: in vivo; conditions: I3C 25 mg/kg body weight/day for 24 hours
Experimental: as §1

AHR [6] = experiment: AHR activation in human ileal explant culture (Cyp1a1 qRT-PCR); assay type: cell-based; conditions: 200 μM I3C or 20 μM A18, 15 minutes pre-treatment then 6 hours
Source text: as §2, with “Human ilea explant cultures were then pre-treated with 200 μM I3C or 20 μM A18 for 15 minutes, and then with 50 μg/mL LPS for 6 hours, then processed for total RNA isolation followed by qRT-PCR.” left out
as §1, with “The relative mRNA expression levels were normalized against the expression of the housekeeping gene ribosomal protein lateral stalk subunit P0 (Rplp0).” left out, “The relative miRNA expression levels were normalized against the expression of housekeeping miRNA miR-191.” left out

[7] = pups, maternal I3C during pregnancy

Structure (SMILES): OCc1c[nH]c2ccccc12 [I3C, indole-3-carbinol]
- Cyp1a1 expression in cultured IEC-6 enterocytes (AHR [1]): significantly increased the expression of Cyp1a1
- LPS-induced Tnf-a expression in human intestinal explant cultures (TLR4 [2]): reduced LPS-induced Tnf-a expression
- Cyp1a1 expression in the neonatal intestinal epithelium (ileum) (AHR [3]; Ahr^Δlys mice, NEC model, I3C 25 mg/kg body weight/day for 4 days): induced the expression Cyp1a1; also recorded: moderate increase
- Cyp1a1 expression in the intestinal epithelium (AHR [3]; Ahr^−/− newborn mice, fed I3C 25 mg/kg/day or A18 300 mg/kg/day): did not induce Cyp1a1
- Cyp1a1 expression in the intestinal epithelium (AHR [3]; Il22^−/− mice, NEC model, I3C 25 mg/kg body weight/day for 4 days): induced the expression of Cyp1a1
- expression of the AHR response gene Cyp1a1 in the small intestine (AHR [3]; fetus at e17.5): induced the expression of the AHR response gene Cyp1a1
- Cyp1a1 expression in suckling pups (AHR [3]; p11, I3C administered to the lactating mother): induced Cyp1a1 expression
- expression of the AHR response gene Cyp1a1 in the small intestine (AHR [3]; pregnant mother): induced the expression of the AHR response gene Cyp1a1
- Cyp1a1 expression in the intestinal epithelium (AHR [3]; wild-type newborn (p11) mice, fed I3C 25 mg/kg/day or A18 300 mg/kg/day): induced Cyp1a1 expression
- Cyp1a1 expression in the neonatal intestinal epithelium (ileum) (AHR [3]; wildtype mice, NEC model, I3C 25 mg/kg body weight/day for 4 days): induced the expression Cyp1a1; also recorded: multifold induction
- NEC severity (mouse NEC model; Ahr^ΔIEC mice, I3C 25 mg/kg/day during NEC induction): relatively scant protective effect
- NEC severity (mouse NEC model; Ahr^Δlys mice, I3C 25 mg/kg/day during NEC induction): moderate protective effect; also recorded: protection against NEC development
- NEC severity (mouse NEC model; Ahr^−/− mice, oral to pups during NEC induction: I3C 25 mg/kg/day, A18 300 mg/kg/day, or human breast milk 5% in formula): no protective effect
- NEC severity (mouse NEC model; Il22^−/− mice, I3C 25 mg/kg/day for 4 days): reduced NEC severity
- severity of experimental NEC in the pups (mouse NEC model; oral I3C to the mother during pregnancy, 25 mg/kg body weight/day): significantly reduced the severity of experimental NEC
- expression of 116 in the intestinal epithelium (NEC) (mouse NEC model; [7]): reduced expression of 116
- histological injury (terminal ileum, NEC) (mouse NEC model; [7]): reduced histological injury
- intestinal epithelial apoptosis (TUNEL, NEC) (mouse NEC model; [7]): reduced intestinal epithelial apoptosis
- NEC severity (mouse NEC model; wild-type mice, oral to pups during NEC induction: I3C 25 mg/kg/day, A18 300 mg/kg/day, or human breast milk 5% in formula): significantly reduced the severity of NEC; also recorded: protection against NEC development
- LPS-induced Tnfa expression in enteroids (TLR4 [4]; Ahr^−/− enteroids): not
- LPS-induced Tnfa expression in enteroids (TLR4 [4]; wild-type enteroids): significantly reduced the LPS-mediated induction of Tnfa
- expression in the ileum of microRNAs miR-146b, miR-223 and let-7i ([5]; Ahr^−/− mice): did not increase the expression of these microRNAs
- expression in the ileum of microRNAs miR-146b, miR-223 and let-7i ([5]; wild type mice): significantly upregulated
- Cyp1a1 expression in human intestinal explant cultures (AHR [6]): induced the expression of Cyp1a1
